Experimental data reported in US11780834B2, “Solid forms of 3-((1R,3R)-1-(2,6-difluoro-4-((1-(3-fluoropropyl)azetidin-3-yl)amino)phenyl)-3-methyl-1,3,4,9-tetrahydro-2H-pyrido[3,4-b]indol-2-yl)-2,2-difluoropropan-1-ol and processes for preparing fused tricyclic compounds comprising a substituted phenyl or pyridinyl moiety, including methods …” (Hoffmann-La Roche Inc., priority 2018, dated 2023).
Where “and” joins values, the source holds several entries; their conditions need not be identical. Equal values may be shown once. Where a name gives a salt, the structure may show the parent alone. Read-outs that look alike come from different tables or passages of the source.

What was measured:
[1] = tested on: CYP; assay: In vitro CYP inhibition (human liver microsomes) and induction (human hepatocytes) studies; format: in vitro ADME; details: induction in human hepatocytes
[2] = tested on: ER-positive breast cancer cell lines; assay: Proliferation of ER-positive breast cancer cell lines in vitro; format: cell-based; details: multiple ER-positive breast cancer cell lines, including cells engineered to express clinically relevant ER mutations
[3] = tested on: LBD of both wild-type and mutant ER; assay: Competitive binding to ER ligand-binding domain
[4] = Four-week GLP repeat-dose oral toxicity study in female rats
[5] = Approximate solubility of Compound B Form B material in 20 solvents at RT; format: physicochemical
Method: Polymorph Screening of L-Tartrate. The solubility of Compound B Form B material was estimated in 20 solvents at RT. (Table 22). Approximately 2 mg solids were added into a 3-mL glass vial. Solvents in Table 6-7 were then added into the vials stepwise until the solids were dissolved or a total volume of 1 mL was reached. Results of Table 22 were used to guide the solvent selection in polymorph screening. Polymorph screening experiments were performed using different solution crystallization or solid phase transition methods.

[6] = in vivo
Method: (§1) Patients were enrolled in a dose-escalation stage with enrollment in an expansion stage to follow. During the single-agent dose escalation, cohorts were evaluated at escalating dose levels to determine the MTD or maximum administered dose (MAD).
(§2) Continuous once daily dosing was commenced during the treatment period starting on Cycle 1 Day 1.

[7] = tested on: xenograft models of ER-positive breast cancer
[8] = clinical; details: human, in vivo, po
Method: as §1, §2

[9] = biological target: T1, CYP2C9 (Homo sapiens, UniProt P11712); assay: CYP2C9 metabolism dependent inhibition; format: in vitro ADME
T1 construct: from tissue; host or cells: human liver microsomes

[10] = biological target: T2, CYP2C8 (Homo sapiens, UniProt P10632); assay: CYP2C8 inhibition in human liver microsomes; format: in vitro ADME
T2 construct: from tissue; host or cells: human liver microsomes
T2 sequence (P10632 1-490): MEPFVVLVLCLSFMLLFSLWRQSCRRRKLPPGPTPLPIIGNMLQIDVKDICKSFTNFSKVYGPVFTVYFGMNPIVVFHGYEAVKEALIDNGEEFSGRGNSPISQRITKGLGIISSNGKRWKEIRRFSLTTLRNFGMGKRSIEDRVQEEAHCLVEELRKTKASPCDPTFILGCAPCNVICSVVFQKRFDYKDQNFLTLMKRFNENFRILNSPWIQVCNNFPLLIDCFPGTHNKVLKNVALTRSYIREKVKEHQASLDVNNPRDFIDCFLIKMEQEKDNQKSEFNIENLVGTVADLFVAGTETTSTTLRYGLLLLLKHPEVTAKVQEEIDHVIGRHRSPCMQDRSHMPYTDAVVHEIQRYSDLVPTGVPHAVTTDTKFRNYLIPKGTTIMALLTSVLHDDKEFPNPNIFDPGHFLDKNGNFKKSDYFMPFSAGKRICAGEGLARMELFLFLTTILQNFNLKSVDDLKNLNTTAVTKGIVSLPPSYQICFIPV

[11] = tested on: locally advanced or metastatic ER-positive breast cancer; details: for Response / Response, per cent in parentheses: one line per patient
Method: as §1
Patients were monitored for adverse events during a dose-limiting toxicity (DLT) assessment window, defined as Days −7 to 28 of Cycle 1 (single-agent cohorts). For DLT evaluation, toxicity was graded according to the National Cancer Institute Common Terminology Criteria for Adverse Events, Version 4.0 (NCI CTCAE v4.0).
Patients enrolled in the single-agent Compound B dose-escalation stage, which consists of a screening period, a PK lead-in period, a treatment period, and a safety follow-up period. Continuous once daily dosing was commenced during the treatment period starting on Cycle 1 Day 1. […] The dose will be increased by up to 200% of the preceding dose level for each successive cohort, until a safety finding of concern (i.e., either a DLT, any patient with Grade ≥2 clinically significant toxicity or overall adverse event profile inappropriate for 200% increments) is observed. Once safety findings of concern are observed, dose escalation will not exceed 100% increments.

[12] = female, rat, in vivo, po, 28 days
[13] = Oral bioavailability in monkeys; details: monkey, in vivo
[14] = monkey, in vivo
[15] = biological target: ER (Homo sapiens, UniProt P03372); assay: ER degradation and ER pathway suppression; format: cell-based; details: compared to GDC-0927 and GDC-0810
[16] = biological target: CYP3A4 (Homo sapiens, UniProt P08684); details: read-out: CYP3A4 inhibition IC50, direct inhibition, human liver microsomes
[17] = Four-week GLP repeat-dose oral toxicity study in female monkeys
[18] = Stress stability of solid forms at elevated temperature and humidity (XRPD, impurities); format: physicochemical; details: 40° C./75% RH, one month, tartrate
Method: Preliminary stress stability analysis of Compound B Form B. The XRPD patterns of Compound A salts (fumarate and tartrate) exposed to 40° C./75% RH for one month under open conditions.
XRPD of one-month stability sample.

[19] = Oral bioavailability in rats and dogs; details: rat, dog, in vivo
[20] = Pharmacokinetics after single IV administration; format: in vivo, and monkeys; details: rats, dogs, monkeys
[21] = female, rat, plasma, po, 100 mg/kg
[22] = female, monkey, plasma, po, 60 mg/kg/day

Sequence of CYP3A4 (P08684 whole entry): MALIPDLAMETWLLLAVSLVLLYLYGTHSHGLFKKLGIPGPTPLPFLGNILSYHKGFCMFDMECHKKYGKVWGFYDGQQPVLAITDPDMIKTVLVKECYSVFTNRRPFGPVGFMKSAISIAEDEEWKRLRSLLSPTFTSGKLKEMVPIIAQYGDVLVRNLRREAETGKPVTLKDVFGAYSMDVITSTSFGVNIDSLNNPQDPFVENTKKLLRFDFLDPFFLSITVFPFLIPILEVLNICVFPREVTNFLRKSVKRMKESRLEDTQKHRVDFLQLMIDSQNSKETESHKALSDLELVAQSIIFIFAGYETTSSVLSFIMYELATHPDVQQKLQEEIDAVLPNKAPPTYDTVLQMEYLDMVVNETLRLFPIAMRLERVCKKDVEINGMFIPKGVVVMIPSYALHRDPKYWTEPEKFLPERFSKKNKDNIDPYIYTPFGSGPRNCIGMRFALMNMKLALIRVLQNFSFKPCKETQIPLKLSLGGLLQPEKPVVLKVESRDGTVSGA
T1 sequence (P11712 whole entry): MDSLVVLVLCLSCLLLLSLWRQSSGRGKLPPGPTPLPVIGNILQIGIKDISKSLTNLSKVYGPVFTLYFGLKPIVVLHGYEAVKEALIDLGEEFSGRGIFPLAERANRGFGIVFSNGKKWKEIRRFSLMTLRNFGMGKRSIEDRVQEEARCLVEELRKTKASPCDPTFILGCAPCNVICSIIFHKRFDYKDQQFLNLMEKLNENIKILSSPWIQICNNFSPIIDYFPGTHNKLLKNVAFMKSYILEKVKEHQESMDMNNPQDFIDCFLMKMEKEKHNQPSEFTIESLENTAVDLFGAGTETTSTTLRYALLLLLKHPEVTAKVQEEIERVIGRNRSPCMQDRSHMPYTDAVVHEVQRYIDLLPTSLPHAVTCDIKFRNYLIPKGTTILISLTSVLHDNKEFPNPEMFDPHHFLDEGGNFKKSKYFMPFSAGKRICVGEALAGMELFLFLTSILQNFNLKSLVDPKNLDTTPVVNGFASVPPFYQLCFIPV
Sequence of ER (P03372 whole entry): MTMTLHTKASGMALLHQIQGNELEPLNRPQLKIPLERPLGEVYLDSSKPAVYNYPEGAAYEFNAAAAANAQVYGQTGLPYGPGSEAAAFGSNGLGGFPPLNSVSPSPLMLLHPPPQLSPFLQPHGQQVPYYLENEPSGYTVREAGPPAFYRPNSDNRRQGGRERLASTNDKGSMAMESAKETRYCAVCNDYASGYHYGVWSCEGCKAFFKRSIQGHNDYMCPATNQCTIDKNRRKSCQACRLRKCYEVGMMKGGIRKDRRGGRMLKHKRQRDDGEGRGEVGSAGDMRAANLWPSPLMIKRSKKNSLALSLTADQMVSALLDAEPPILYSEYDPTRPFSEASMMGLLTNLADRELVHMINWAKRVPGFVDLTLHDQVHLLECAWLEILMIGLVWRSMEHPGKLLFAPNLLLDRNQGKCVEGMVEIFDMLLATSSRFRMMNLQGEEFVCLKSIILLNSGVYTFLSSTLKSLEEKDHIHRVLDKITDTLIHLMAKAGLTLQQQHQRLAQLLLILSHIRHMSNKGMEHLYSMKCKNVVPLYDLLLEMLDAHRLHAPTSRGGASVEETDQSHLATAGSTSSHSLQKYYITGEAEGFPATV

For `C[C@@H]1Cc2c([nH]c3ccccc23)[C@@H](c2c(F)cc(NC3CN(CCCF)C3)cc2F)N1CC(F)(F)CO` [Compound B, 3-((1R,3R)-1-(2,6-difluoro-4-((1-(3-fluoropropyl)azetidin-3-yl)amino)phenyl)-3-methyl-1,3,4,9-tetrahydro-2H-pyrido[3,4-b]indol-2-yl)-2,2-difluoropropan-1-ol tartrate], the “Potential for drug-drug interactions” value [1] was “low-to-moderate”, the Inhibition of proliferation [2] was “potently inhibits” and the “Potency of competitive binding to ER LBD” value [3] was “nanomolar potency”. For the same molecule, the AUC(0-t) [4, 21] was 143000 ng·h/mL, the Cmax [4, 21] was 6560 ng/mL and the “Exposure multiple (AUC) over anticipated human Phase I starting dose at which PLD was observed” value ([4]; rats) was “at least 44 fold”. The Exposure factor ([4]; rats, 10 mg/kg) was 18 fold, the PLD finding ([4]; rats, 10 mg/kg) was “not noted” and the “Increase in systemic exposure with dose” value ([4]; rats, 28-day oral) was “dose proportional”. For the same molecule, the solubility ([5]; organic solvent or mixture, thermodynamic from solid, 1,4-Dioxane) was < 2200 µg/mL, the solubility ([5]; organic solvent or mixture, thermodynamic from solid, 2-MeTHF) was < 1900 µg/mL and the solubility ([5]; organic solvent or mixture, thermodynamic from solid, ACN) was < 2100 µg/mL. The solubility ([5]; organic solvent or mixture, thermodynamic from solid, Acetone) was 2100 to 7000 µg/mL, the solubility ([5]; organic solvent or mixture, thermodynamic from solid, Anisole) was < 1900 µg/mL and the solubility ([5]; organic solvent or mixture, thermodynamic from solid, CPME) was < 2100 µg/mL. The solubility ([5]; organic solvent or mixture, thermodynamic from solid, DCM) was < 2000 µg/mL, the solubility ([5]; organic solvent or mixture, thermodynamic from solid, DMSO) was > 38000 µg/mL and the solubility ([5]; organic solvent or mixture, thermodynamic from solid, EtOAc) was < 1900 µg/mL. For the same molecule, the solubility ([5]; organic solvent or mixture, thermodynamic from solid, EtOH) was < 1900 µg/mL, the solubility ([5]; organic solvent or mixture, thermodynamic from solid, IPA) was < 2100 µg/mL and the solubility ([5]; organic solvent or mixture, thermodynamic from solid, IPAc) was < 1900 µg/mL. The solubility ([5]; organic solvent or mixture, thermodynamic from solid, MEK) was < 2000 µg/mL, the solubility ([5]; organic solvent or mixture, thermodynamic from solid, MIBK) was < 1900 µg/mL and the solubility ([5]; organic solvent or mixture, thermodynamic from solid, MTBE) was < 2100 µg/mL. The solubility ([5]; organic solvent or mixture, thermodynamic from solid, MeOH) was 6700 to 20000 µg/mL, the solubility ([5]; organic solvent or mixture, thermodynamic from solid, THF) was 2100 to 7000 µg/mL and the solubility ([5]; organic solvent or mixture, thermodynamic from solid, Toluene) was < 1900 µg/mL. For the same molecule, the solubility ([5]; organic solvent or mixture, thermodynamic from solid, n-Heptane) was < 2000 µg/mL, the solubility ([5]; water, thermodynamic from solid, H2O) was < 1900 µg/mL and the “Plasma exposure vs dose” value [6] was “increased proportionally”. The “Steady state exposure vs dose” value [6] was “higher than dose proportional”, the “Tolerability of doses in xenograft models” value ([7]; in vivo) was “well tolerated” and the Anti-tumor activity ([7]; including patient-derived xenograft with ESR1 mutation (ER.Y537S)) was “dose-dependent anti-tumor activity”. For the same molecule, the “Fold lower dose giving same in vivo efficacy as GDC-0927” value ([7]; vs GDC-0927) was 100 ×, the Efficacious dose range ([7]; xenograft models) was 0.1 to 10 mg/kg/day and the half-life [8] was ~40 h. For the same molecule, the “Metabolism dependent inhibition of CYP2C9” value [9] was “weak”, the IC50 [10] was 21 µM and the “Response of individual patient (CT, FES-PET)” value ([11]; 10 mg, after 3 cycles) was “showed response”. The FES-PET response ([11]; all treated patients with FES-PET, qualitative) was “near-complete (NC) or complete responses (CR)”, the Response ([11]; cohort 1 (10 mg), tartrate) was “uPR” and the “Response, per cent in parentheses” value ([11]; cohort 1 (10 mg), tartrate) was −40% and −27%. The Response ([11]; cohort 1-BF (10 mg)) was “cPD”, the “Response, per cent in parentheses” value ([11]; cohort 2 (30 mg)) was −9% and the “DLTs, SAEs, AESIs, clinically significant laboratory abnormalities” value ([11]; in vivo) was “no observed”. For the same molecule, the “Severely toxic dose for 10% of animals (STD10)” value [12] was 100 mg/kg, the bioavailability [13] was 17% and the “Highest non-severely toxic dose” value ([14]; female, po, 28 days) was 60 mg/kg/day. The “Tolerability at high dose” value ([14]; 200 mg/kg) was “not tolerated”, the “ER degradation & ER pathway suppression” value [15] was “superior” and the IC50 ([16]; midazolam 1′-hydroxylation) was 6.5 µM. For the same molecule, the IC50 ([16]; testosterone 6β-hydroxylation) was 26 µM, the MTD at 4 weeks ([17]; female, monkey, in vivo, po) was 60 mg/kg and the AUC(0-t) [17, 22] was 16200 ng·h/mL. For the same molecule, the Cmax [17, 22] was 841 ng/mL, the “Exposure multiple (AUC) over anticipated human Phase I starting dose at which PLD was observed” value ([17]; monkeys) was ≥ 6 fold and the Exposure factor ([17]; monkeys, 20 mg/kg) was 6 fold. For the same molecule, the PLD finding ([17]; monkeys, 20 mg/kg) was “limited to minimal changes in the lung”, the “Increase in systemic exposure with dose” value ([17]; monkeys, 28-day oral) was “dose proportional” and the “Solid form (XRPD) after stress stability” value ([18]; open) was “did not change”. For the same molecule, the “Impurities after stress stability” value ([18]; listed as tartrate salt) was “lacked the impurities”, the bioavailability [19] was 41 to 55% and the half-life ([20]; rat, dog, monkey, in vivo, read-out: Terminal elimination half-life) was 7 to 24 h. For the same molecule, the Clearance [20] was “low to moderate” and the Volume of distribution [20] was “large”.
